The test system of test [1] is A375SM human metastatic melanoma cells. The test can be described thus: A375SM orthotopic xenograft in Nude mice. In kind it is in vivo. The procedure:
Experiments were carried out to determine the in vivo effects of 3D1 mAb on primary melanoma. To this end, 500,000 C8161 cells were injected subcutaneously in Nude mice. Palpable tumors were then injected directly with either 700 μg of total 3D1 mAb or IgG control antibody (alternate day intratumoral injection of 100 μg over 14 days). Mice were then sacrificed and subcutaneous tumors harvested and processed as previously described. To evaluate the effect of 3D1 mAb in the presence of the BRAF(V600E) mutation, a third orthotopic xenograft model was established in Nude mice via subcutaneous injection of approximately 150,000 A375SM human metastatic melanoma cells. Mice were treated IP with 3D1 mAb or IgG control, as described above, or 3 mg/kg of dabrafenib.
Four micron thick, formalin fixed, paraffin embedded tissue sections were prepared and immunohistochemistry was carried out on a Dako Plus autostainer (DAKO, Inc, Carpenteria, Calif.). Following antigen retrieval and blocking steps, sections were incubated in primary antibody for 60 mins, followed by appropriate biotinylated secondary antibody (Biocare Medical, Conrad, Calif.), and then streptavidin-horseradish peroxidase (Thermo Scientific Lab Vision). Color was developed with 3,3′-diaminobenzidine substrate (Thermo Scientific Lab Vision) and sections were counterstained with hematoxylin (Biocare Medical, LLC). As a negative control, adjacent serial sections were incubated with species appropriate irrelevant IgG (Jackson ImmunoResearch Labs) at the same concentration as primary antibodies. Similar to the lung tumor burden evaluation described above, mean percentage of positive staining±SEM was determined by 2 different observers, each calculating the ratio of positive cells/total number of cells×100 for 4 separate high power fields (63× objective) from at least 2 different mice per group.

The subject of test [2] is A375SM human melanoma cell line. Kind of test: Western blot of A375SM cells treated with BRAFi (dabrafenib) or 3D1. In kind it is cell-based. The conditions noted are these: 72 hr. How it is done:
To determine the level of Nodal expression in brain, kidney, liver, pancreas, heart and skeletal muscle ready to use adult tissue extracts for Western blotting (WB) were purchased from Santa Cruz Biotechnology. For WB experiments of cell lines, whole cell lysates were prepared and quantified. SDS-PAGE gel electrophoresis and WB were performed using standard techniques. PVDF membranes were blocked in 5% non-fat milk or 5% BSA and antibodies diluted in either 5% non-fat milk or 5% bovine serum albumin overnight at 4° C., depending on the manufacturer's recommendations. Signal was detected using West Pico chemiluminescence reagent (Thermo Fisher) and exposure to x-ray film.
On the technique in general: In western blotting, separated proteins are transferred to a membrane and probed.

The next test concerns 3D1 mAb. Kind of test: ELISA epitope mapping and specificity assay of coated peptides probed with 3D1. The format is binding, mouse. The conditions noted are these: peptides coated at 1.0 μg/mL; 3D1 mAb 1.0 μg/mL. How it is done: Residues underlying the binding between 3D1 and Nodal were investigated by epitope mapping using a set of Nodal synthetic peptides (See FIG. 9). […] Peptides were immobilized at 1 μg/mL and probed with 3D1 at […]. Data were normalized to the binding of the peptide hNODAL (44-69) wild-type (WT). […] Most interactions were established with C43, P46, V47, E49, E50. The effect of Y58 can be on the conformation of the peptide.
Peptides used for the epitope mapping and for the specificity assay of the 3D1 mAb were coated at 1.0 μg/mL diluted in PBS; 3D1 mAb, dissolved in PBS, was used as primary antibody at 1.0 μg/mL.
(In general: An ELISA detects its analyte on a solid surface through an enzyme-linked reagent.)

Another test relates to endogenous Nodal. The test can be described thus: Western blot competition between 3D1 antigen peptide and endogenous Nodal in human embryonic stem cell lysates. In kind it is binding. The conditions noted are these: 3D1 4 μg/mL, hNodal(44-56) 10 μg/mL; H9 and H14 hESC lysates. How it is done: Thirty micrograms of H9 and H14 human embryonic stem cell total protein lysates, obtained as previously described, were separated on a 15% SDS-PAGE gel under reducing conditions and the resolved proteins were transferred onto a PVDF membrane. 50 ng of rhNodal protein were used as positive control. A Western blotting procedure was conducted: membranes were blocked, then probed with the 3D1 alone at 4.0 μg/mL in 2.5% NFDM in TBS-T and with the 3D1 mAb at 4.0 μg/mL pre-incubated with its antigen, the hNodal(44-56) peptide at 10 μg/mL. […] Blots were developed with Enhanced Chemiluminescence Western Blot Substrate (Pierce, Rockford, Ill., USA) following the manufacturer's instructions and were acquired by using a Chemidoc XRS video densitometer (Bio-Rad, Hercules, Calif., USA).

Entries after “also recorded” stand apart in the source; their conditions may differ.

On to `CC(C)(C)c1nc(-c2cccc(NS(=O)(=O)c3c(F)cccc3F)c2F)c(-c2ccnc(N)n2)s1` [dabrafenib], for which the “mean percentage (±SEM) of nuclear P-Smad2” value in test [1] (IHC, N=4) is given as 68.7%±6.3%. Also, the tumor volumes entry in test [1] (after 8 days, vs IgG control) is given as “trend towards reduced tumor volumes”. Further, the Nodal expression entry in test [2] is recorded as “relatively unaffected; also recorded: only minimally affected”. In test [2] (dabrafenib 10 nM), the “ERK1/2 activity (P-ERK1/2)” value is on record as “significantly reduced”.

With “CEGECPNPVGEEFHPTNHAYIQSLLKRYQPHRVPSTC [hNodal(39-75)]”, the “ELISA signal for binding to 3D1” value in the test on 3D1 mAb was “bound with similar efficiency”.

Take PNPVGEEFHPTNH [hNodal(44-56)]: the “ELISA signal for binding to 3D1” value in the test with 3D1 mAb is on record as “strongest signal”. Moreover, the “staining of endogenous Nodal by 3D1 after pre-incubation with the peptide” value in the test with endogenous Nodal is on record as “no longer detectable”.

Source of the values: patent US10508147B2, “Anti-nodal antibodies and methods of using same” (ANN AND ROBERT H. LURIE CHILDREN'S HOSPITAL OF CHICAGO, priority 2014, dated 2019).
